Results from paper PMC10215804, “Exploring Alternative Pathways to Target Bacterial Type II Topoisomerases Using NBTI Antibacterials: Beyond Halogen-Bonding Interactions” (Antibiotics, 2023).
Where two headings read alike, the source gives them in different places.

What was measured:
E. coli ESBL QA-11.3 = assay: MIC, broth microdilution; format: cell-based; settings: Escherichia coli
In short: (§1)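 CLSI/EUCAST microdilution; CAMHB + TES; final inoculum 10^5 CFU/mL from 0.5 McFarland suspension; compounds dissolved in DMSO; MIC = lowest concentration with no visible growth; tetracycline control on every plate.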

E. faecalis RDK 057 = assay: MIC, broth microdilution; format: cell-based
In short: (§2)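 Per CLSI and EUCAST guidance, cation-adjusted Mueller–Hinton broth with TES, final inoculum 10^5 CFU/mL; compounds added from DMSO. MIC read as lowest concentration preventing visible growth.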

S. aureus (ATCC 29213) = assay: MIC, broth microdilution; format: cell-based; settings: Staphylococcus aureus, ATCC29213
In short: as §2

E. coli (ATCC 25922) = assay: MIC, broth microdilution; format: cell-based; settings: Escherichia coli
In short: as §1

E. coli N43 (CGSC# 5583) = assay: MIC, broth microdilution; format: cell-based; settings: Escherichia coli
In short: as §1

A. baumannii = assay: MIC, broth microdilution; format: cell-based; settings: Acinetobacter baumannii
In short: as §1

K. pneumoniae = assay: MIC, broth microdilution; format: cell-based; settings: Klebsiella pneumoniae
In short: as §1

VRE = assay: MIC, broth microdilution; format: cell-based; settings: Enterococcus
In short: as §1

P. aeruginosa RDK 184 = assay: MIC, broth microdilution; format: cell-based; settings: Pseudomonas aeruginosa
In short: as §1

E. coli D22 = assay: MIC, broth microdilution; format: cell-based; settings: Escherichia coli
In short: as §2

MRSA (QA-11.2) = assay: MIC, broth microdilution; format: cell-based, S. aureus; settings: Staphylococcus aureus
Protocol: (§3) For the determination of minimum inhibitory concentrations (MIC), the broth microdilution method was used in 96-well plate format, according to the guidelines of the Clinical and Laboratory Standards Institute and the recommendations of the European Committee on Antimicrobial Susceptibility Testing (EUCAST). The dilutions of the bacterial suspension of the specific bacterial strain, corresponding to the 0.5 McFarland turbidity standard, were prepared with […] Mueller–Hinton broth with TES (Thermo Fisher Scientific) to obtain an end inoculum of 10^5 CFU/mL. The compounds were dissolved in DMSO and mixed with the inoculum. […] The MIC was determined as the lowest concentration of antibiotic that prevented visible bacterial growth. Tetracycline was used as a positive control on each test plate.

MRSA (QA-11.7) = assay: MIC, broth microdilution; format: cell-based, S. aureus; settings: Staphylococcus aureus
Protocol: as §3

MRSA(QA-12.1) = assay: MIC, broth microdilution; format: cell-based, S. aureus; settings: Staphylococcus aureus
Protocol: as §3

human topoisomerase IIα = target: T1, human topoisomerase IIα (Homo sapiens, UniProt P11388); assay: human topoisomerase II alpha relaxation high-throughput assay (selectivity); format: biochemical; settings: residual activity at 100 µM compound; mean ± SD, two independent experiments; read-out: Human TopoIIα (% RA at 100 µM)
T1 construct: purchased Inspiralis (Norwich, UK)
T1 sequence (P11388 whole entry): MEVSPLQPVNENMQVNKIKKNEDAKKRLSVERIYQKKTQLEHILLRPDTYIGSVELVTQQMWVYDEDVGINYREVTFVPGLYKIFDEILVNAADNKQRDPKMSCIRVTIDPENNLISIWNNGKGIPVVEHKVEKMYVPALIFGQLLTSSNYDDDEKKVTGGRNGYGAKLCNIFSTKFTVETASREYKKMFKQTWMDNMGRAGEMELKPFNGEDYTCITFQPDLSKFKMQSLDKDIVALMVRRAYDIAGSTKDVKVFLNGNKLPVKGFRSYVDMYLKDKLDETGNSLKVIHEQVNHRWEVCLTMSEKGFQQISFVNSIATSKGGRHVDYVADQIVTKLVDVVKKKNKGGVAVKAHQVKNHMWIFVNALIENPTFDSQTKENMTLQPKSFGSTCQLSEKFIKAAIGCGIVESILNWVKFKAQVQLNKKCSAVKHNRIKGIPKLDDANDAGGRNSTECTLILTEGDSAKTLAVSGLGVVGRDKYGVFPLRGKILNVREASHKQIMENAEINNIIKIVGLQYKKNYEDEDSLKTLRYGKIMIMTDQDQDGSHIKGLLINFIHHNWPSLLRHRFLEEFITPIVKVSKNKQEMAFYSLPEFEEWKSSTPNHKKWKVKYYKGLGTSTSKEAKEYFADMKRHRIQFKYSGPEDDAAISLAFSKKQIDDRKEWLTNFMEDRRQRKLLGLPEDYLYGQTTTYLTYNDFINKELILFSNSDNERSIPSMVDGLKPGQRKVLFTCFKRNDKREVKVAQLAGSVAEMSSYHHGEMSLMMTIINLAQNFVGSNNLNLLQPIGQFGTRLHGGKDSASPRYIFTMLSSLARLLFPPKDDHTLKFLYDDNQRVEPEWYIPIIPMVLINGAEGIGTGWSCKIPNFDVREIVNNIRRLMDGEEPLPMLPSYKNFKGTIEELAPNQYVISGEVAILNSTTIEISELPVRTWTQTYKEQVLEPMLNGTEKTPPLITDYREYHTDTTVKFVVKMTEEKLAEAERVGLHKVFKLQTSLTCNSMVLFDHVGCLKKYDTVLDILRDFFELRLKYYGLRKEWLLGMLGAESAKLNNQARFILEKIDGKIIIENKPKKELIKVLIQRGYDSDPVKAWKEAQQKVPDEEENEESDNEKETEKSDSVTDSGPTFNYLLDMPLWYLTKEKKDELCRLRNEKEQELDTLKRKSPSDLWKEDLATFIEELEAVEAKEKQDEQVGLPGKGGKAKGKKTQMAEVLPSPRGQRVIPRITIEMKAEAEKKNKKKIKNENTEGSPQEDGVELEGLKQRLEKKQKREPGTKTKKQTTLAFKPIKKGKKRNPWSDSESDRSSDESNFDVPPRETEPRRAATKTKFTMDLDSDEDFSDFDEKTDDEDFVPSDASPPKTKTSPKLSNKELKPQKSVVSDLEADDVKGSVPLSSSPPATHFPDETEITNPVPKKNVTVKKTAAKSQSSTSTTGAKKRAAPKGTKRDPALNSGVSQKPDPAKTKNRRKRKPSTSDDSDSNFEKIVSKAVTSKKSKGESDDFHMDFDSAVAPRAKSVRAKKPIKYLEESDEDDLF
Protocol: For selectivity determination, a human topoisomerase II alpha relaxation high-throughput assay was used. The assay kits and black streptavidin-coated 96-well microtiter plates are available from Inspiralis (Norwich, UK). Two independent measurements were performed with an inhibitory concentration of 100 µM. Raw data were calculated as the mean ± SD percentage of the residual enzyme activity.

E. coli DNA gyrase = target: T2, E. coli DNA gyrase (Escherichia coli, UniProt P0AES4); assay: DNA gyrase supercoiling inhibition assay (high-throughput plate assay); format: biochemical
T2 construct: purchased Inspiralis (Norwich, UK)
T2 sequence (P0AES4 whole entry): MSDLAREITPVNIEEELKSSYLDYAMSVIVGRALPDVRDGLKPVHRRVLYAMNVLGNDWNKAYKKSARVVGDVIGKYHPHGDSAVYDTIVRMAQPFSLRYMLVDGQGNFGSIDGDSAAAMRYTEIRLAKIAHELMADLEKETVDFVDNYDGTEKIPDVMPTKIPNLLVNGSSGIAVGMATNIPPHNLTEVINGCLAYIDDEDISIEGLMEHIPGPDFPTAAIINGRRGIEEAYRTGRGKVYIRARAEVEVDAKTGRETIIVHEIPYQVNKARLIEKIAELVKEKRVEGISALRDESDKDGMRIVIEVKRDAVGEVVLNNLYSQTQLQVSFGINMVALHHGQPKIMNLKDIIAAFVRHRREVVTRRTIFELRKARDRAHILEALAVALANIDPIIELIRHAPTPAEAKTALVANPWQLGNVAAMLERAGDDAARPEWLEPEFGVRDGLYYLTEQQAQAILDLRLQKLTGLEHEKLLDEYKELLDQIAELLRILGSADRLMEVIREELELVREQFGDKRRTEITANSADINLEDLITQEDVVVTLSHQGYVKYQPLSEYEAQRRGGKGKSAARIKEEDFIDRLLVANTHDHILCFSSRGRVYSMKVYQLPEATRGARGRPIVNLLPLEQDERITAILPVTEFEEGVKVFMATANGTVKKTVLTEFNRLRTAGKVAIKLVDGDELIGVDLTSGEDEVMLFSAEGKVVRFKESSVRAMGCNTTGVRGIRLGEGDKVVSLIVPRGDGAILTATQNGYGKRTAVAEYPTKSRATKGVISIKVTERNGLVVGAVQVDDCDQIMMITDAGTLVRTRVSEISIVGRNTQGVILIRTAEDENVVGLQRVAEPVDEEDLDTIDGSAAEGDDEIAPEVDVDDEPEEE
Protocol: (§4) To determine the IC50 values of the compounds for S. aureus and E. coli, a DNA gyrase supercoiling high-throughput plate assay and a topoIV relaxation high-throughput plate assay were performed. Assay kits and black streptavidin-coated 96-well microtiter plates are available from Inspiralis (Norwich, UK). For pre-screening, an inhibitor concentration of 100 μM was used. […] A nonlinear regression-based fit of the inhibition curves was used, with the log [inhibitor] versus slope of the reaction variables (four parameters) and a symmetric equation. […] To determine IC50 values, two independent repetitions were performed and the average was calculated.

S. aureus topoIV = target: T3, S. aureus topoIV (Staphylococcus aureus, UniProt P0C1U9); assay: biochemical; settings: relaxation inhibition; mean of two independent measurements ± SD
T3 construct: purchased Inspiralis (Norwich, UK)
T3 sequence (P0C1U9 whole entry): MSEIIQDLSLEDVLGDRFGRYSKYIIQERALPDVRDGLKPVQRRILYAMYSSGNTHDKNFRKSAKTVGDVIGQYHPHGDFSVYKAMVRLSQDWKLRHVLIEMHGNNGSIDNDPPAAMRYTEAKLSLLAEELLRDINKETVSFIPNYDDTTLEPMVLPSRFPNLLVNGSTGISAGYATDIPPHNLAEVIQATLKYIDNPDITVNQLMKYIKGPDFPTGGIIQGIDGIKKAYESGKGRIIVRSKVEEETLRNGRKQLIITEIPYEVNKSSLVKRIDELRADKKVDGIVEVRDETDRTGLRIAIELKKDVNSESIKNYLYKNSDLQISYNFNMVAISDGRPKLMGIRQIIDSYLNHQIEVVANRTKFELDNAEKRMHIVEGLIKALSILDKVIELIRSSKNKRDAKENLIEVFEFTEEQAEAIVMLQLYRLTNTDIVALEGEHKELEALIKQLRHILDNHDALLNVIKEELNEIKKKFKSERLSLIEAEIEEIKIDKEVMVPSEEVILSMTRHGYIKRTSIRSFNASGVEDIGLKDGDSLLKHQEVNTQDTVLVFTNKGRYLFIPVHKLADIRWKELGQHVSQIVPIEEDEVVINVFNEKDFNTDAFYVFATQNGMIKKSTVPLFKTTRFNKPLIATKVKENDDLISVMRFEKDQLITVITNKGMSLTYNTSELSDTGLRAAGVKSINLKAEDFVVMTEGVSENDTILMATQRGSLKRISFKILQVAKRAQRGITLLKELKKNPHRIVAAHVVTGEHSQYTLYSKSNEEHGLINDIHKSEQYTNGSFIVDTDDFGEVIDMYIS
T3 sequence (P0C1S7 whole entry partner): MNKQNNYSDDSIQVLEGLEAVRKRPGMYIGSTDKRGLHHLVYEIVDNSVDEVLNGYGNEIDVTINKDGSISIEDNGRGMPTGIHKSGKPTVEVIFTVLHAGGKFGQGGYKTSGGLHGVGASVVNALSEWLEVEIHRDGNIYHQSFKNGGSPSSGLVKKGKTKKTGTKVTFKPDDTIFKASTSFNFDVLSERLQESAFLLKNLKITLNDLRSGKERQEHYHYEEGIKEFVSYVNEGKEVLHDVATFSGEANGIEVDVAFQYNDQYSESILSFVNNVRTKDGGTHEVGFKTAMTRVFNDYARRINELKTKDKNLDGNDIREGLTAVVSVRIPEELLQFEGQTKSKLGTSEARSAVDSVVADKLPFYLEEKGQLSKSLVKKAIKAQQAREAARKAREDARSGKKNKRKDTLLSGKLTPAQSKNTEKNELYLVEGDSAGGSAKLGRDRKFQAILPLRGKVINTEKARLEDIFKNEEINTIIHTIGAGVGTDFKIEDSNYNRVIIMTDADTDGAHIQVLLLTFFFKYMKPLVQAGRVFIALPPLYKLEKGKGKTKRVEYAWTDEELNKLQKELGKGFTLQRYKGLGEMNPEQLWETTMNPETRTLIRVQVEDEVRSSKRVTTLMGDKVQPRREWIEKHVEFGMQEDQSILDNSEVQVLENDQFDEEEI
Protocol: as §4

S. aureus DNA gyrase = target: T4, S. aureus DNA gyrase (Staphylococcus aureus, UniProt P20831); assay: biochemical; settings: supercoiling inhibition; mean of two independent measurements ± SD
T4 construct: purchased Inspiralis (Norwich, UK)
Protocol: as §4

[1] = ESBLQA11.3, Table S3, read-out: MIC (μM) E. coli ESBL QA:11.3
[2] = ESBLQA11.3, read-out: MIC E. coli ESBL QA-11.3
[3] = Enterococcus faecalis, RDK057; Table S3; read-out: MIC (μM) E. faecalis DRK 057
[4] = Table S3, read-out: MIC (μM) S. aureus (ATCC 29213)
[5] = read-out: MIC S. aureus (ATCC 29213)
[6] = ATCC25922, Table S3, read-out: MIC (μM) E. coli (ATCC 25922)
[7] = ATCC25922, read-out: MIC E. coli (ATCC 25922)
[8] = read-out: MIC E. coli N43 (CGSC# 5583)
[9] = Table S3, read-out: MIC (μM) A. baumannii
[10] = Table S3, read-out: MIC (μM) K. pneumoniae
[11] = Table S3, read-out: MIC (μM) VRE
[12] = RDK184, 20 h, Table S3, read-out: MIC (μM) P. aeruginosa RDK 184
[13] = RDK184, read-out: MIC P. aeruginosa RDK 184
[14] = D22, Table S3, lpxC mutation, read-out: MIC (μM) E. coli D22
[15] = D22, lpxC mutation that increases membrane permeability, read-out: MIC E. coli D22
[16] = Table S3, read-out: MIC (μM) MRSA (QA-11.2)
[17] = Table S3, read-out: MIC (μM) MRSA (QA-11.7)
[18] = strain resistant to cefoxitin, ciprofloxacin, clindamycin, erythromycin, tetracycline, thiamulin, trimethoprim, read-out: MIC MRSA (QA-11.7)
[19] = Table S3, read-out: MIC (μM) MRSA(QA-12.1)
[20] = strain resistant to cefoxitin, gentamicin, kanamycin, rifampicin, streptomycin, sulfamethoxazole, tetracycline, read-out: MIC MRSA(QA-12.1)
[21] = ESBLQA11.3, 20 h, Table S3, read-out: MIC (μM) E. coli ESBL QA:11.3
[22] = Enterococcus faecalis, RDK057; read-out: MIC E. faecalis RDK 057
[23] = ATCC25922, 20 h, Table S3, read-out: MIC (μM) E. coli (ATCC 25922)
[24] = 20 h, Table S3, read-out: MIC (μM) K. pneumoniae

Structure (SMILES) | MIC (E. coli ESBL QA-11.3; [2]) [µg/mL] | MIC (S. aureus (ATCC 29213); [4]) [µM] | MIC (S. aureus (ATCC 29213); [5]) [µg/mL] | MIC (E. coli (ATCC 25922); [7]) [µg/mL] | MIC (E. coli N43 (CGSC# 5583); read-out: MIC (μM) E. coli N43) [µM] | MIC (E. coli N43 (CGSC# 5583); [8]) [µg/mL] | MIC (A. baumannii; [9]) [µM] | MIC (A. baumannii; read-out: MIC A. baumannii) [µg/mL] | MIC (K. pneumoniae; read-out: MIC K. pneumoniae) [µg/mL] | MIC (VRE; [11]) [µM] | MIC (VRE; read-out: MIC VRE) [µg/mL] | MIC (P. aeruginosa RDK 184; [12]) [µM] | MIC (P. aeruginosa RDK 184; [13]) [µg/mL] | MIC (E. coli D22; [15]) [µg/mL] | MIC (MRSA (QA-11.2); [16]) [µM] | MIC (MRSA (QA-11.2); read-out: MIC MRSA (QA-11.2)) [µg/mL] | MIC (MRSA (QA-11.7); [17]) [µM] | MIC (MRSA (QA-11.7); [18]) [µg/mL] | MIC (MRSA(QA-12.1); [19]) [µM] | MIC (MRSA(QA-12.1); [20]) [µg/mL] | further results
COc1ccc2nccc(CCN3CCC(NCc4ccc(C)cc4)CC3)c2n1 [Compound 5, 1-(2-(6-Methoxy-1,5-naphthyridin-4-yl)ethyl)-N-(4-methylbenzyl)piperidin-4-amine] | 4 | 0.082 | 0.032 | 2 | 0.32 | 0.125 | 2.56 | 1 | 16 | 0.082 | 0.032 | > 328 | > 128 | 1 | 0.082 | 0.032 | 0.041 | 0.016 | 0.041 | 0.016 | MIC (E. coli ESBL QA-11.3; [1]): 10.2 µM; MIC (E. faecalis RDK 057; Enterococcus faecalis, RDK057, read-out: MIC E. faecalis RDK 057): 0.125 µg/mL; MIC (E. faecalis RDK 057; [3]): 0.32 µM; MIC (E. coli (ATCC 25922); [6]): 5.12 µM; MIC (K. pneumoniae; [10]): 41 µM; MIC (E. coli D22; [14]): 2.56 µM; remaining activity at 100 µM (human topoisomerase IIα): 103%; IC50 (E. coli DNA gyrase): 1019 ± 5 nM; IC50 (S. aureus topoIV): 1230 ± 258 nM; IC50 (S. aureus DNA gyrase): 145 ± 14 nM
COc1ccc2nccc(OCC3CCC(NCc4ccc(C)cc4)CC3)c2n1 (stereo not drawn) [Compound 6] | > 128 | 2.56 | 1 | > 128 | 10.2 | 4 | 164 | 64 | > 128 | 5.12 | 2 | > 328 | > 128 | 32 | 1.28 | 0.5 | 2.56 | 1 | 5.12 | 2 | MIC (E. coli ESBL QA-11.3; [21]): > 328 µM; MIC (E. faecalis RDK 057; [3]): 20.5 µM; MIC (E. faecalis RDK 057; [22]): 8 µg/mL; MIC (E. coli (ATCC 25922); [23]): > 328 µM; MIC (K. pneumoniae; [24]): > 328 µM; MIC (E. coli D22; [14]): 81.9 µM; remaining activity at 100 µM (human topoisomerase IIα): 101%; IC50 (E. coli DNA gyrase): 1520 ± 361 nM; IC50 (S. aureus topoIV): > 100000 nM; IC50 (S. aureus DNA gyrase): 403 ± 20 nM
COc1ccc2nccc(OCC3CCC(NCc4ccc(C)cc4)CO3)c2n1 (stereo not drawn) [Compound 7, 6-(((6-Methoxy-1,5-naphthyridin-4-yl)oxy)methyl)-N-(4-methylbenzyl)tetrahydro-2H-pyran-3-amine] | > 128 | 1.28 | 0.5 | > 128 | 10.2 | 4 | 164 | 64 | > 128 | 5.12 | 2 | > 328 | > 128 | 32 | 0.64 | 0.25 | 2.56 | 1 | 1.28 | 0.5 | MIC (E. coli ESBL QA-11.3; [21]): > 328 µM; MIC (E. faecalis RDK 057; Enterococcus faecalis, RDK057, read-out: MIC (μM) E. faecalis DRK 057): 10.2 µM; MIC (E. faecalis RDK 057; [22]): 4 µg/mL; MIC (E. coli (ATCC 25922); [23]): > 328 µM; MIC (K. pneumoniae; [24]): > 328 µM; MIC (E. coli D22; [14]): 81.9 µM; remaining activity at 100 µM (human topoisomerase IIα): 101%; IC50 (E. coli DNA gyrase): 1310 ± 348 nM; IC50 (S. aureus topoIV): > 100000 nM; IC50 (S. aureus DNA gyrase): 194 ± 18 nM
COc1ccc2nccc(C(O)CC3CCC(NCc4ccc(C)cc4)CC3)c2n1 (stereo not drawn) [Compound 8, 1-(6-Methoxy-1,5-naphthyridin-4-yl)-2-(4-((4-methylbenzyl)amino)cyclohexyl)ethan-1-ol] | 8 | 0.161 | 0.063 | 8 | 2.56 | 1 | 5.12 | 2 | 16 | 0.32 | 0.125 | 328 | 128 | 1 | 0.082 | 0.032 | 0.32 | 0.125 | 0.161 | 0.063 | MIC (E. coli ESBL QA-11.3; [1]): 20.5 µM; MIC (E. faecalis RDK 057; [3]): 0.64 µM; MIC (E. faecalis RDK 057; [22]): 0.25 µg/mL; MIC (E. coli (ATCC 25922); [6]): 20.5 µM; MIC (K. pneumoniae; [10]): 41 µM; MIC (E. coli D22; D22, read-out: MIC (μM) E. coli D22): 2.56 µM; remaining activity at 100 µM (human topoisomerase IIα): 100 ± 1%; IC50 (E. coli DNA gyrase): 1320 ± 460 nM; IC50 (S. aureus topoIV): 2500 ± 252 nM; IC50 (S. aureus DNA gyrase): 77 ± 10 nM
